In publication PMC10610023, “Nucleoside Analog 2′,3′-Isopropylidene-5-Iodouridine as Novel Efficient Inhibitor of HIV-1” (Pharmaceutics, 2023):
Where two headings read alike, the source gives them in different places.

What was measured:
[1] = system: HIV-1 based replication-defective lentiviral particles; assay: microbe, parasite or virus in culture; format: cell-based; conditions: for EC50: Human immunodeficiency virus 1, Jurkat, 72 h
[2] = Cell viability analysis, Trypan blue staining, Jurkat cells; format: cell-based, human; conditions: human, 72 h
Description: (§1) In this study, we used Jurkat and CEM-ss (human T-lymphoblastic leukemia) cells cultured in RPMI-1640 medium and HEK293T (human embryonic kidney cells) cells cultured in a DMEM medium. Growth medium was supplemented with 10% FBS (fetal bovine serum), 2 mM L-glutamine, 1mM sodium pyruvate, 100 μg/mL of streptomycin, and 100 units/mL of penicillin (Gibco/Invitrogen Life technologies). Cells were cultured at 37 °C in a humidified atmosphere with 5% CO2.
(§2) Palbociclib was dissolved in H2O. At 72 h after treatment, cell viability was assessed by staining with a 0.4% Trypan blue solution (Invitrogene Corp., Carlsbad, CA, USA) by counting in a Neubauer chamber. CC50s were calculated by nonlinear regression with variable slope (four parameters) and robust fitting using the GraphPad Prism software v.8.4.3 (GraphPad Software, San Diego, CA, USA).

Jurkat cells [3] = assay: as above; format: cell-based, human
Description: as §1, §2

CEM-ss cells = assay: Cell viability analysis, Trypan blue staining, CEM-ss cells; format: cell-based, human; conditions: 72 h, concentrations up to 30 μM
Description: as §1, §2

[4] = as above; format: cell-based, human; conditions: human, CEM-ss cells, 0–30 μM
Description: as §1, §2

[5] = system: HIV-1 based replication-defective lentiviral particles; assay: microbe, parasite or virus in culture; format: cell-based; conditions: for EC50: Human immunodeficiency virus 1, CEM-SS, 72 h
[6] = system: HIV-1 based replication-defective lentiviral particles; assay: Drug combination analysis Palbociclib with AZT or 2f, VP-GFP transduction of Jurkat cells; format: cell-based; conditions: for drug interaction with Palbociclib (ZIP synergy): pre-treated with Palbociclib 12 h; for inhibition at 0.0029 µM / inhibition at 0.0059 µM / inhibition at 0.0117 µM: Human immunodeficiency virus 1, Jurkat, read-out: Inhibition efficiency, %, Jurkat
Description: At 48 h post treatment with viral particles encoding marker GFP, the transduction efficiency was measured by flow cytometry (Figure 6E). In both combinations, Palbociclib was used in concentrations of ~3 nM, ~6 nM, or ~12 nM. […] Then, the dose-response matrixes were used to calculate synergy scores using ZIP algorithm (Figure 6F,G).

Jurkat cells [7] = assay: Cell cycle analysis, propidium iodide staining, Jurkat cells; format: cell-based, human; conditions: concentrations up to 12 nM
Description: (§3) Apoptosis was measured by double staining with Annexin V-FITC (Invitrogene, Thermo Scientific, Waltham, MA, USA) and propidium iodide (PI) (Sigma, Cibolo, TX, USA) 72 h after transduction. To measure the distribution of cells in the phases of the cell cycle, Jurkat cells were fixed in ethanol and stained with propidium iodide. All measurements were performed on an LSR Fortessa flow cytometer (BD Biosciences, San Jose, CA, USA). […] Analysis of cell cycle rate was performed with ModFit LT software v.4.1.7 (Verity Software House, Topsham, ME, USA).

Jurkat cells [8] = assay: Apoptosis analysis, Annexin V-FITC/PI staining, Jurkat cells; format: cell-based, human; conditions: 72 h, concentrations up to 12 nM
Description: as §3

[9] = system: HIV-1 based replication-defective lentiviral particles; assay: Drug combination analysis AZT with 2f, VP-GFP transduction of Jurkat cells
Description: (§4) In our experiments, we decided not to exceed the concentration of 30 μM of each drug in order to exclude the possible side effects of DMSO; concentration in a well for these experiments was not more than 0.06%. The equivalent concentration of DMSO (0.06%) was used in control samples of cells not treated with drugs. […] At 72 h after transduction, the percentage of eGFP-positive cells was determined by flow cytometry (LSR Fortessa, BD Biosciences, Heidelberg, Germany). […] Analysis of the eGFP positive cells percentage was performed with FlowJo software 10.0.7 (FlowJo LLC, Ashland, OR, USA).
(§5) For this we used both compounds at the wide range of concentrations.
(§6) Next, the synergy distribution plots were generated and analyzed using the Synergy Finder v3.0 web source. We used the ZIP model to calculate synergy scores that were used to interpret drug interaction relationships. Scores larger than 10 mean that the interaction between two drugs is synergistic. Scores up to 10 mean that the interaction is likely to be additive.

[10] = system: HIV-1 based replication-defective lentiviral particles; assay: Drug combination analysis AZT with 2f, VP-GFP transduction of CEM-ss cells; conditions: AZT and 2f in combination, up to 30 μM each
Description: as §4, §5, §6

[11] = 72 h, concentrations up to 30 μM

With `Cc1cn([C@H]2C[C@H](N=[N+]=[N-])[C@@H](CO)O2)c(=O)[nH]c1=O` [AZT, 3′-Azido-2′,3′-dideoxythymidine, reference compound] the EC50 [1] was 0.4 ± 0.1 µM, the “cells remaining GFP positive (plateau effect)” value ([1]; Jurkat, from 2 μM up to 30 μM) was “about 30%” and the CC50 at 72 h ([2]; Jurkat cells, 0–30 μM) was over 30 µM. For the same compound, the “effect on cell survival” value (Jurkat cells [3]; [11]) was “did not affect cell survival”, the “effect on cell survival” value (CEM-ss cells) was “did not affect cell survival” and the CC50 at 72 h [4] was over 30 µM. For the same compound, the “cells remaining GFP positive (plateau effect)” value ([5]; CEM-ss, from 2 μM up to 30 μM) was “about 20%”, the EC50 [5] was 0.0122 ± 0.0114 µM and the “drug interaction with Palbociclib (ZIP synergy)” value ([6]; Jurkat) was “no synergistic action”.
In the case of `CC(=O)c1c(C)c2cnc(Nc3ccc(N4CCNCC4)cn3)nc2n(C2CCCC2)c1=O` [Palbociclib], the CC50 at 72 h ([2]; Jurkat cells, Palbociclib 0–6 μM) is reported as 0.141 ± 0.0256 µM, the “effect on cell survival” value (Jurkat cells [3]; concentrations up to 12 nM) is reported as “not to affect cell survival” and the “effect on cell cycle progression” value (Jurkat cells [7]) is reported as “did not find any effect on cell cycle progression”. For the same compound, the induction of apoptosis (Jurkat cells [8]) was “does not cause the induction of apotosis”, the inhibition at 0.0029 µM ([6]; Palbociclib alone 2.9 nM (2f 0 nM, matrix of panel G)) was 10.8% and the inhibition at 0.0029 µM ([6]; Palbociclib alone 2.9 nM (AZT 0 nM, matrix of panel F)) was 8.03%. It also gave an inhibition at 0.0059 µM ([6]; Palbociclib alone 5.9 nM (2f 0 nM, matrix of panel G)) of 5.66%, an inhibition at 0.0059 µM ([6]; Palbociclib alone 5.9 nM (AZT 0 nM, matrix of panel F)) of 8.75% and an inhibition at 0.0117 µM ([6]; Palbociclib alone 11.7 nM (2f 0 nM, matrix of panel G)) of 3.9%. The inhibition at 0.0117 µM ([6]; Palbociclib alone 11.7 nM (AZT 0 nM, matrix of panel F)) was 0.83% and the “suppressive effect on transduction efficiency of VP-GFP” value ([6]; Jurkat, Palbociclib alone, ~3, ~6 or ~12 nM) was “not more than 10%”.
`Cc1cn([C@@H]2O[C@H](CO)[C@H]3OC(C)(C)O[C@H]32)c(=O)[nH]c1=O` [2b, 2′,3′-O-isopropylidene-5-methyluridine] showed an EC50 [1] of over 30 µM, a CC50 at 72 h ([2]; 0–30 μM) of over 30 µM and a CC50 at 72 h [4] of over 30 µM. It also gave an EC50 [5] of over 30 µM.
In the case of `CC1(C)O[C@@H]2[C@H](O1)[C@@H](CO)O[C@H]2n1cc(F)c(=O)[nH]c1=O` [2c, 2′,3′-O-isopropylidene-5-fluorouridine], the CC50 at 72 h ([2]; 0–30 μM) is reported as 7.9 ± 0.6 µM, the “effect on cell survival” value (Jurkat cells [3]; [11]) is reported as “significant suppressive effect on the survival” and the “effect on cell survival” value (CEM-ss cells) is reported as “significant suppressive effect on the survival”. For the same compound, the CC50 at 72 h [4] was 8.4 ± 2.2 µM.
Compound `CC1(C)O[C@@H]2[C@H](O1)[C@@H](CO)O[C@H]2n1cc(Br)c(=O)[nH]c1=O` [2e, 2′,3′-O-isopropylidene-5-bromouridine] has an EC50 [1] of over 30 µM, a CC50 at 72 h ([2]; 0–30 μM) of over 30 µM and a CC50 at 72 h [4] of over 30 µM. It also gave an EC50 [5] of over 30 µM.
For `CC1(C)O[C@@H]2[C@H](O1)[C@@H](CO)O[C@H]2n1ccc(=O)[nH]c1=O` [2a, 2′,3′-O-isopropylideneuridine], the EC50 [1] was over 30 µM, the CC50 at 72 h ([2]; 0–30 μM) was over 30 µM and the CC50 at 72 h [4] was over 30 µM. It also gave an EC50 [5] of over 30 µM.
In the case of `CC1(C)O[C@@H]2[C@H](O1)[C@@H](CO)O[C@H]2n1cc(Cl)c(=O)[nH]c1=O` [2d, 2′,3′-O-isopropylidene-5-chlorouridine], the EC50 [1] is reported as over 30 µM, the CC50 at 72 h ([2]; 0–30 μM) is reported as over 30 µM and the CC50 at 72 h [4] is reported as over 30 µM. The EC50 [5] was over 30 µM.
For `CC1(C)O[C@@H]2[C@H](O1)[C@@H](CO)O[C@H]2n1cc(I)c(=O)[nH]c1=O` [2f, 2′,3′-O-isopropylidene-5-ioduridine], the “suppression of VP-GFP transduction efficiency” value (“suppression” for short) ([9]; 2f 12 μM supplemented with AZT 12 μM, compared with 2f alone 30 μM (90%)) was “same activity”, the “drug interaction (ZIP synergy, SynergyFinder)” value ([9]; AZT and 2f in combination, up to 30 μM each) was “do not act synergistically” and the “suppression” value ([9]; compound alone, 12 μM) was 70%. For the same compound, the “suppression” value ([9]; compound alone, 30 μM) was 90%, the “effect on transduction efficiency of HIV-1 lentiviral particles (VP-GFP)” value [1] was “caused the suppression of the transduction efficiency” and the EC50 [1] was 10.5 ± 1.2 µM. For the same compound, the CC50 at 72 h ([2]; 0–30 μM) was over 30 µM, the CC50 at 72 h [4] was over 30 µM and the EC50 [5] was 13.1 ± 1.3 µM. For the same compound, the “drug interaction (ZIP synergy, SynergyFinder)” value [10] was “do not act synergistically” and the “drug interaction with Palbociclib (ZIP synergy)” value ([6]; Jurkat) was “acts synergistically”.
